Data: US5609749A, “Electrochemical assay method with novel p-phenylenediamine compound” (Mochida Pharmaceutical Co., Ltd., priority 1993, dated 1997)
Structures can show the parent of a compound that is named as a salt.

Key:
[1] = Dry chemistry type chips: filter paper impregnated with mediator solution and dried on an electrode; settings: mediator dried on cellulose or glass filter paper, dissolved by liquid sample
Excerpt: In addition, the present inventors have attempted to prepare a dry chemistry type chips by impregnating a piece of cellulose filter paper or glass filter paper with a solution of HQ, PPD, TMPD or TEPD and drying the resulting piece on an electrode (by freeze-drying, vacuum drying, air-drying or the like) or arranging it on an electrode after drying so that the impregnated electron mediator can dissolve in a liquid sample at the time of measurement.

[2] = biological target: T1, Horseradish peroxidase (HRPO) (Armoracia rusticana, UniProt P00433); assay: Electron transfer activity 2: HRPO-hydrogen peroxide-compound, current at -80 mV or -150 mV; type: biochemical; settings: -80 mV or -150 mV vs Ag/AgCl, pH 6.0
T1 construct: purchased TOYOBO
T1 sequence (P00433 31-338 limits assumed): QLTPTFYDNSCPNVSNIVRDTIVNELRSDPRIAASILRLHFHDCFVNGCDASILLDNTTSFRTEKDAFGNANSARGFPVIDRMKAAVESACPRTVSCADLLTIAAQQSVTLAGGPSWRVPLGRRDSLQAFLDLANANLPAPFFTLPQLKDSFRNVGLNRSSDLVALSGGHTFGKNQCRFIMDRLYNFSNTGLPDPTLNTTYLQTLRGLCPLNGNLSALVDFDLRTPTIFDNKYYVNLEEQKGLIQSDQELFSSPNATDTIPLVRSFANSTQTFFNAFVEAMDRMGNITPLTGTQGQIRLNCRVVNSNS
Experimental: Measurement of electron transfer activities of TCPD, THEPD, TDHPD, HTEPD, N,N-BHDPD, N,N'-BHPD, N,N'-BHDPD, and p-phenylenediamine derivatives having substituted amino group by reacting p-phenylenediamine with propyleneoxide--2
Horseradish peroxidase (HRPO, manufactured by TOYOBO) was dissolved in 0.1M phosphate buffer (pH 6.0) containing 0.1M NaCl to prepare 0M and 5.0×10^-7 M HRPO solutions. Also, hydrogen peroxide (manufactured by Wako Pure Chemical Industries) was dissolved in the same buffer to prepare a 1.0×10^-1 M solution. In the same manner, each of the TCPD, THEPD, TDHPD, HTEPD, N,N-BHDPD, N,N'-BHPD, N,N'-BHDPD, and p-phenylenediamine derivatives having substituted amino group by reacting p-phenylenediamine with propyleneoxide obtained in Synthesis Examples 1 to 9 was dissolved in the same buffer to prepare a 5.0×10^-3 M solution.
(§1) Each of these solutions was mixed in 0.1M phosphate buffer (pH 6.0) containing 0.1M NaCl in the following mixing ratio just before the measurement to prepare solutions of the following compositions A and B, and electric current was measured continuously in the presence (composition A) or absence (composition B) of HRPO.
Using the same apparatus of Test Example 2, electric current was measured in the presence (composition A) or absence (composition B) of HRPO for 5 or 10 minutes after application of potential of -80 mV (vs Ag/AgCl, the same shall apply hereinafter) in the case of TEPD, THEPD, and TDHPD, or -150 mV in the case of TCPD, HTEPD, N,N-BHDPD, N,N'-BHPD, N,N'-BHDPD, and p-phenylenediamine derivatives having substituted amino group by reacting p-phenylenediamine with propyleneoxide.

Glucose oxidase (GOD) = biological target: T2, Glucose oxidase (GOD) (Aspergillus niger, UniProt P13006); assay: Electron transfer activity 1: GOD-glucose-compound, current at +300 mV; type: biochemical; settings: +300 mV vs Ag/AgCl, pH 6.0
T2 construct: purchased Boehringer-Mannheim
Experimental: Measurement of electron transfer activities of TEPD, TCPD, THEPD, TDHPD, HTEPD, N,N'-BHPD, N,N-BHDPD, N,N'-BHDPD, and p-phenylenediamine derivatives having substituted amino group by reacting p-phenylenediamine with propyleneoxide--1
Glucose oxidase (GOD, manufactured by Boehringer-Mannheim) was dissolved in 0.1M phosphate buffer (pH 6.0) containing 0.1M NaCl to prepare 0M and 4.0×10^-4 M GOD solutions. Also, glucose (manufactured by Junsei Kagaku) was dissolved in the same buffer to prepare a 1.5M solution. In the same manner, each of the TEPD, TCPD, THEPD, TDHPD, HTEPD, N,N-BHDPD, N,N'-BHPD, N,N'-BHDPD, and p-phenylenediamine derivatives having substituted amino group by reacting p-phenylenediamine with propyleneoxide obtained in Synthesis Examples 1 to 9 was dissolved in the same buffer to prepare a 5.0×10^-3 M solution.
as §1, with “and” for “and electric”, “GOD.” for “HRPO.”
Using the same apparatus of Test Example 2, electric current was measured in the presence (composition A) or absence (composition B) of GOD for 10 minutes under application of potential of +300 mV (vs Ag/AgCl) to the working electrode.

[3] = Current response of electron mediators in buffer solution and in the presence of blood, urine; settings: for current response: in a buffer solution; for response in the presence of blood, urine and the like: interfering substances in blood
Excerpt: (§2) Of these oxidation-reduction enzymes, glucose oxidase (GOD) is used in enzyme electrodes for the measurement of blood glucose level and horseradish peroxidase (HRPO) is used as a label enzyme in specific binding assays such as DNA hybridization, immunoassay and the like. […] However, these electron mediators were not able to show stable and reproducible response in the presence of blood, urine and the like because of the interfering substances contained therein.

[4] = Measurement of vapor pressures (gas flow method); type: physicochemical; settings: for vapor pressure lower than that of TEPD / vapor pressure: at 25° C.; for vapor pressure: gas flow method; for property in drying (freeze-drying, vacuum drying, air-drying) and stability of dried states: compared with PPD, TMPD and TEPD, concluded from vapor pressures
Experimental: Measurement of vapor pressures of p-phenylenediamine(PPD), N,N,N',N'-tetramethyl-p-phenylenediamine (TMPD), TEPD, TCPD, THEPD and TDHPD
The PPD(manufactured by Wakoh Junyaku K.K), TMPD (manufactured by Tokyo Kasei K.K), further, TEPD, TCPD, THEPD and TDHPO obtained in the course of the procedures of Synthesis Examples 1 to 4 were checked for their vapor pressures.
Vapor densities (amount of evaporation/volume) of the solid samples (PPD, TMPD, TEPD, TCPD, THEPD and TDHPD) were measured by contacting each sample heated to a predetermined temperature with a stream of carrier gas (nitrogen) and saturating the sample with vapor, and vapor pressures of TEPD and THEPD were calculated from the data on an assumption that the vapor follows the law of ideal gas (gas flow method). The vapor density was calculated by measuring evaporation rate (loss rate) of each sample using an electric balance, and the carrier gas flow rate using a flow meter.
The vapor pressure was calculated from the vapor density based on the following formula.
In the above formula, P represents vapor pressure (mmHg), k represents evaporation rate (mg/min), v represents carrier gas flow rate (ml/min), k/v represents vapor density (mg/ml), M represents molecular weight of each sample, π represents pressure of the system (mmHg) and V represents molar volume of carrier gas (l/mol).

glucose oxidase = glucose oxidase (Aspergillus niger, UniProt P13006); assay: Current response in a buffer with electron mediator (inventors' experiments); type: biochemical; settings: compared with conventional electron mediators (ferrocene derivatives, inorganic ions, metal complexes)
Excerpt: as §2

horseradish peroxidase = biological target: T3, horseradish peroxidase (Armoracia rusticana, UniProt P00433); assay: as above; type: biochemical; settings: compared with conventional electron mediators (ferrocene derivatives, inorganic ions, metal complexes)
T3 sequence (P00433 31-338 limits assumed): T1 sequence (P00433 31-338 limits assumed)
Excerpt: as §2

T2 sequence (P13006 17-605): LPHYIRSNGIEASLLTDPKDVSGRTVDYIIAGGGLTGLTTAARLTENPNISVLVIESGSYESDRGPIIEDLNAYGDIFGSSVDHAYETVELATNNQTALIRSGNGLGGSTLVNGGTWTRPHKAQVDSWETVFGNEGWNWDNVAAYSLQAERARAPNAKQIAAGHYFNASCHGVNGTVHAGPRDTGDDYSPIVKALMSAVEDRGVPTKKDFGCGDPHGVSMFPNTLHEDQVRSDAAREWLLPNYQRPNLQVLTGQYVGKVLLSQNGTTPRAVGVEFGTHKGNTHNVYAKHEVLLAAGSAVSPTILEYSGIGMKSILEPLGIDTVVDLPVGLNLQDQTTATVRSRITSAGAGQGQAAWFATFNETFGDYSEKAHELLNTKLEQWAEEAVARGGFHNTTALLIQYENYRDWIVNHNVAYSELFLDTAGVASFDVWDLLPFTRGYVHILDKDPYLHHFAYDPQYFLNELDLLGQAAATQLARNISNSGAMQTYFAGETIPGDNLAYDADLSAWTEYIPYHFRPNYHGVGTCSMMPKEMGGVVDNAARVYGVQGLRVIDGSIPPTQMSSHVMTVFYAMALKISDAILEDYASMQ
glucose oxidase, sequence (P13006 17-605): as above

Row | Compound | current response and characteristics of dry chemistry type chips [1] | function as electron mediator between HRPO and the electrode [2] | function as electron mediator between GOD and the electrode (Glucose oxidase (GOD)) | further results
1 | Oc1ccc(O)cc1 [HQ, hydroquinone] | low current response and extremely poor characteristics |  |  | 
2 | CCN(CC)c1ccc(N(CC)CCO)cc1 [HTEPD, N-2'-hydroxyethyl-,N,N',N'-triethyl-p-phenylenediamine dihydrochloride] |  | function as a reversible electron mediator between HRPO and the electrode | function as a reversible electron mediator between GOD and the electrode | 
3 | CCN(CCO)c1ccc(N(CC)CCO)cc1.Cl.Cl [N,N'-BHDPD, N,N'-bis-(2'-hydroxyethyl)-N,N'-diethyl-p-phenylenediamine dihydrochloride] |  | function as a reversible electron mediator between HRPO and the electrode | function as a reversible electron mediator between GOD and the electrode | 
4 | OCCNc1ccc(NCCO)cc1 [N,N'-BHPD, N,N'-bis-(2'-hydroxyethyl)-p-phenylenediamine] |  | function as a reversible electron mediator between HRPO and the electrode | function as a reversible electron mediator between GOD and the electrode | 
5 | CCN(CC)c1ccc(N(CCO)CCO)cc1.Cl.Cl [N,N-BHDPD, N,N-bis-(2'-hydroxyethyl)-N',N'-diethyl-p-phenylenediamine dihydrochloride] |  | function as a reversible electron mediator between HRPO and the electrode | function as a reversible electron mediator between GOD and the electrode | 
6 | Nc1ccc(N)cc1 [PPD, p-phenylenediamine] | low current response and extremely poor characteristics |  |  | current response [3]: excellent current response; response in the presence of blood, urine and the like [3]: interference
7 | O=C(O)CN(CC(=O)O)c1ccc(N(CC(=O)O)CC(=O)O)cc1 [TCPD, N,N,N',N'-tetrakiscarboxymethyl-p-phenylenediamine] |  | function as a reversible electron mediator between HRPO and the electrode | function as a reversible electron mediator between GOD and the electrode | vapor pressure lower than that of TEPD [4]: about 50,000 times; vapor pressure [4]: 8.7×10^-9 mmHg; property in drying (freeze-drying, vacuum drying, air-drying) and stability of dried states [4]: superior to those of PPD, TMPD and TEPD
8 | Cl.Cl.OCC(O)CN(CC(O)CO)c1ccc(N(CC(O)CO)CC(O)CO)cc1 (stereo not drawn) [TDHPD, N,N,N',N'-tetrakis-(2',3'-dihydroxypropyl)-p-phenylenediamine dihydrochloride] |  | function as a reversible electron mediator between HRPO and the electrode | function as a reversible electron mediator between GOD and the electrode | vapor pressure lower than that of TEPD [4]: about 420,000 times; vapor pressure [4]: 1.0×10^-9 mmHg; property in drying (freeze-drying, vacuum drying, air-drying) and stability of dried states [4]: superior to those of PPD, TMPD and TEPD
9 | CN(C)c1ccc(N(C)C)cc1 [TMPD, N,N,N',N'-tetramethyl-p-phenylenediamine] | low current response and extremely poor characteristics |  |  | current response [3]: excellent current response; response in the presence of blood, urine and the like [3]: interference
10 | hydroquinone (HQ)/benzoquinone (BQ) |  |  |  | current response (glucose oxidase): superior current response; current response (horseradish peroxidase): superior current response
